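Method: 48-hour compound exposure of cells in 96-well plates, five concentrations, linear interpolation of endpoints. The concentration for 50% growth inhibition is given as GI50.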 Active and inactive are the calls of the source. No stated cut-off is given here; in the data, active = GI50 up to about 1.1 µM and inactive = higher.

The source of these data is ChEMBL document CHEMBL1201862, “PubChem BioAssay data set” (2004).

Among the test systems are MOLT-4; HL-60; PC-3; ACHN; UO-31; SN12C; HCT-15; RPMI-8226; NCI-H23; EKVX; NCI/ADR-RES; OVCAR-4; TK-10; SK-MEL-2; HOP-92; SK-MEL-5; OVCAR-8; HCT-116; MDA-N; LXFL 529.
Assay in all cases: NCI-60 cell line screen, 48 h

`Oc1ncc(Cl)c(O)n1`: the GI50 in the test with MOLT-4, with HL-60, with PC-3, in the test with ACHN, in the test with UO-31 and in the test on SN12C was > 100 µM (inactive) each time. In addition, the GI50 in the test on HCT-15 is more than 100 µM; in the test with RPMI-8226, > 100 µM (inactive); with NCI-H23, > 100 µM (inactive); with EKVX, > 100 µM (inactive); in the test with NCI/ADR-RES, > 100 µM (inactive); with OVCAR-4, > 100 µM (inactive). In addition, the GI50 in the test with TK-10, with SK-MEL-2, in the test on HOP-92, in the test on SK-MEL-5, with OVCAR-8 and in the test on HCT-116 was > 100 µM (inactive) each time. The GI50 in the test on MDA-N is > 100 µM (inactive).
On to `COC(=O)c1c(O)ccc2c1c1c(n2Cc2cccc(C)c2)C(=O)c2ccccc2C1=O`, for which the GI50 is 4.24 µM (inactive) with MOLT-4; 16.6 µM (inactive) with HL-60; 11 µM (inactive) in the test on PC-3; 11.2 µM (inactive) with ACHN; 5.92 µM (inactive) in the test on UO-31; 7.76 µM (inactive) in the test with SN12C. The GI50 in the test on HCT-15 was 8.05 µM; in the test with RPMI-8226 it was 3.72 µM (inactive); with NCI-H23 it was 11.4 µM (inactive); with EKVX, 19.5 µM (inactive); in the test on NCI/ADR-RES it was 9.42 µM (inactive); in the test on OVCAR-4, 6.46 µM (inactive). In addition, the GI50 was 12 µM (inactive) in the test with TK-10; 12.6 µM (inactive) with SK-MEL-2; 6.61 µM (inactive) in the test on HOP-92; 13.1 µM (inactive) in the test on SK-MEL-5; 7.31 µM (inactive) in the test on OVCAR-8; 6.97 µM (inactive) with HCT-116. For the same molecule, in the test on MDA-N, the GI50 is 13.1 µM (inactive).
Take `NCCC1(N)CCNCC1`: the GI50 in the test with MOLT-4, in the test with HL-60, with PC-3, with ACHN, in the test with UO-31 and with SN12C was > 100 µM (inactive) throughout. The GI50 with HCT-15 was more than 100 µM; in the test on RPMI-8226, > 100 µM (inactive); in the test on NCI-H23 it was > 100 µM (inactive); with EKVX it was > 100 µM (inactive); in the test with NCI/ADR-RES, > 100 µM (inactive); in the test with OVCAR-4 it was > 100 µM (inactive). Further, the GI50 in the test on TK-10 is > 100 µM (inactive); in the test on SK-MEL-2 it was > 100 µM (inactive); with HOP-92 it was < 0.01 µM (active); with SK-MEL-5, > 100 µM (inactive); with OVCAR-8, > 100 µM (inactive); in the test on HCT-116, > 100 µM (inactive). In addition, the GI50 in the test with MDA-N was > 100 µM (inactive).
On to `C1CSCCCSCCCSCCCSCCCSCCCSCCCSCCCSC1`, for which the GI50 in the test on MOLT-4, in the test with HL-60, in the test on PC-3, with ACHN, in the test on UO-31 and in the test with SN12C was > 100 µM (inactive) throughout. Also, the GI50 with HCT-15 was more than 100 µM; in the test on RPMI-8226, > 100 µM (inactive); with NCI-H23 it was > 100 µM (inactive); with EKVX, > 100 µM (inactive); with NCI/ADR-RES it was > 100 µM (inactive); in the test on OVCAR-4 it was > 100 µM (inactive). The GI50 with TK-10 is > 100 µM (inactive); in the test on SK-MEL-2, > 100 µM (inactive); in the test on HOP-92, > 100 µM (inactive); with SK-MEL-5, 85.9 µM (inactive); in the test with OVCAR-8 it was > 100 µM (inactive); in the test on HCT-116 it was > 100 µM (inactive). In addition, in the test with MDA-N, the GI50 was > 100 µM (inactive).
In the case of `CC(=O)Nc1ccc(C(=O)NN2C(=O)C(Cl)C2c2ccc(O)cc2)cc1` (centres undefined), the GI50 with MOLT-4 was > 100 µM (inactive); with HL-60 it was > 100 µM (inactive); in the test with ACHN it was > 100 µM (inactive); in the test with UO-31, > 100 µM (inactive); in the test on SN12C, > 100 µM (inactive); in the test on HCT-15, more than 100 µM. Also, the GI50 in the test on EKVX was > 100 µM (inactive); in the test on OVCAR-4, > 100 µM (inactive); in the test on TK-10, > 100 µM (inactive); with SK-MEL-2 it was > 100 µM (inactive); in the test with SK-MEL-5, > 100 µM (inactive); in the test with OVCAR-8, 77.3 µM (inactive). Besides, the GI50 with HCT-116 and in the test with LXFL 529 was > 100 µM (inactive) in each case.
As to `C[S+]([O-])c1ncc2c(n1)-c1ccccc1OC2` (centres undefined), the GI50 in the test with MOLT-4 is > 100 µM (inactive); in the test with HL-60, 36.7 µM (inactive); in the test on PC-3, > 100 µM (inactive); in the test on ACHN it was 92.5 µM (inactive); in the test on UO-31, 22.3 µM (inactive); in the test on SN12C, 47 µM (inactive). In addition, the GI50 with HCT-15 is 88.1 µM; with RPMI-8226, 81.8 µM (inactive); with NCI-H23, > 100 µM (inactive); with EKVX it was 70.1 µM (inactive); in the test on NCI/ADR-RES, > 100 µM (inactive); with OVCAR-4, 85.9 µM (inactive). In addition, the GI50 with TK-10 is 45.7 µM (inactive); with SK-MEL-2, > 100 µM (inactive); with HOP-92, 49.3 µM (inactive); with SK-MEL-5, 78.3 µM (inactive); in the test on OVCAR-8, > 100 µM (inactive); in the test on HCT-116, > 100 µM (inactive). In addition, the GI50 with MDA-N is > 100 µM (inactive).
For `C=CCC(C)(C(=O)NCCC)C(=O)c1ccccc1O` (centres undefined), the GI50 is > 100 µM (inactive) in the test with MOLT-4; > 100 µM (inactive) with HL-60; > 100 µM (inactive) in the test on ACHN; > 100 µM (inactive) in the test on UO-31; > 100 µM (inactive) in the test on SN12C; more than 100 µM with HCT-15. The GI50 in the test on RPMI-8226, in the test with OVCAR-4, in the test with TK-10, with SK-MEL-2, with SK-MEL-5 and in the test on OVCAR-8 was > 100 µM (inactive) in each case. Further, the GI50 with HCT-116 and in the test with LXFL 529 was > 100 µM (inactive) throughout.
As for `C=C1c2ccccc2C(=O)c2c1c1c(C(=O)OC)c(O)ccc1n2Cc1ccccc1`, the GI50 in the test on MOLT-4 is 0.219 µM (active); in the test on HL-60 it was 0.265 µM (active); with PC-3, 0.437 µM (active); in the test with ACHN it was 0.454 µM (active); in the test on UO-31 it was 0.512 µM (active); in the test with SN12C it was 0.312 µM (active). Moreover, the GI50 in the test on HCT-15 is 0.232 µM; in the test with RPMI-8226, 0.175 µM (active); with NCI-H23 it was 0.713 µM (active); with EKVX it was 0.9 µM (active); in the test with NCI/ADR-RES, 0.235 µM (active); in the test with OVCAR-4, 0.558 µM (active). Moreover, the GI50 is 0.459 µM (active) with TK-10; 0.817 µM (active) in the test on SK-MEL-2; < 0.01 µM (active) in the test on HOP-92; 0.7 µM (active) in the test on SK-MEL-5; 0.245 µM (active) with OVCAR-8; 0.557 µM (active) with HCT-116. In the test on MDA-N, the GI50 was 0.32 µM (active).
Take `COC(=O)c1ccccc1CC(Cc1ccc2c(c1)CCC2)C(=O)OC` (centres undefined): the GI50 with MOLT-4 was 31.8 µM (inactive); with HL-60, 45.9 µM (inactive); in the test on PC-3 it was 93.3 µM (inactive); in the test on ACHN, > 100 µM (inactive); with UO-31 it was > 100 µM (inactive); in the test with SN12C, > 100 µM (inactive). Also, the GI50 with HCT-15 is more than 100 µM; in the test on RPMI-8226, > 100 µM (inactive); in the test with NCI-H23, > 100 µM (inactive); with EKVX it was > 100 µM (inactive); in the test with NCI/ADR-RES it was > 100 µM (inactive); with OVCAR-4, > 100 µM (inactive). Moreover, the GI50 was > 100 µM (inactive) in the test with TK-10; > 100 µM (inactive) in the test on SK-MEL-2; > 100 µM (inactive) in the test with HOP-92; 32.4 µM (inactive) in the test with SK-MEL-5; > 100 µM (inactive) in the test with OVCAR-8; 49.1 µM (inactive) in the test on HCT-116. Also, in the test with MDA-N, the GI50 is 62.4 µM (inactive).
In the case of `C#CCSc1cnc2ccccc2c1Sc1c[nH]c2ccccc2c1=O`, the GI50 with MOLT-4 was 4.53 µM (inactive); with HL-60, 16.6 µM (inactive); in the test with PC-3, 17.6 µM (inactive); with ACHN, 13.6 µM (inactive); in the test on UO-31 it was 2.14 µM (inactive); in the test on SN12C, 12.8 µM (inactive). Also, the GI50 is 16.1 µM in the test on HCT-15; 4.2 µM (inactive) with RPMI-8226; 15.4 µM (inactive) in the test with NCI-H23; 19.1 µM (inactive) in the test with EKVX; 33 µM (inactive) with NCI/ADR-RES; 20.9 µM (inactive) in the test on OVCAR-4. Further, the GI50 with TK-10 is 40.2 µM (inactive); with SK-MEL-2, 19.1 µM (inactive); in the test on HOP-92, 16.1 µM (inactive); in the test with SK-MEL-5, 15.6 µM (inactive); in the test on OVCAR-8 it was 24.7 µM (inactive); with HCT-116, 13.3 µM (inactive). For the same molecule, the GI50 in the test with MDA-N is 18.1 µM (inactive).
Consider `O=C(N/N=C/c1ccc2c(c1)OCO2)Nc1ccccc1Cl`, for which the GI50 in the test with MOLT-4 is 0.462 µM (active); with HL-60, 0.565 µM (active); in the test with PC-3, 2.21 µM (inactive); with ACHN, 7.43 µM (inactive); in the test with UO-31 it was 4.25 µM (inactive); in the test on SN12C it was 0.847 µM (active). The GI50 in the test on HCT-15 was 0.418 µM; in the test on RPMI-8226, 1.48 µM (inactive); in the test with NCI-H23, 1.66 µM (inactive); with EKVX it was 8.07 µM (inactive); in the test with NCI/ADR-RES, 0.335 µM (active); in the test with OVCAR-4 it was 10 µM (inactive). Moreover, the GI50 with TK-10 is 2.15 µM (inactive); with SK-MEL-2 it was 0.556 µM (active); with HOP-92, 6.24 µM (inactive); in the test with SK-MEL-5, 1.35 µM (inactive); in the test on OVCAR-8 it was 2.56 µM (inactive); in the test on HCT-116, 0.861 µM (active). The GI50 with MDA-N was 0.161 µM (active).
